Source: patent US12642796B2, “Method and device of treating chronic kidney disease-associated pruritus” (Avior, Inc., priority 2018, dated 2026)
Where “and” joins values, the source holds several entries; their conditions need not be identical. Equal values may be shown once.

Assays:
Type in all cases: in vivo, mouse
[1] = tested on: C57BL mice; assay: SP injection, scratches Groups 7-9, 0-30 minutes (Example 3)
Method: […] […] Group 9 (N=4) received SP in PBS at a dose of 0.5 mM/50 μL. Various scratching behavior was video recorded and assessed.
Group 7: All mice were placed in a clear cylindrical enclosure 30 minutes prior to testing to acclimate. An ID bolus injection of SP in sodium acetate was administered.
Groups 8 and 9: All mice were placed in a clear cylindrical enclosure 30 minutes prior to testing to acclimate. An ID bolus injection of SP in PBS was administered. Recording began immediately following injection of SP and recorded for 30 minutes.
Animals in Groups 7-9 were acclimated for […] prior to recording. Behavioral recording lasted for 30 minutes (T0-T30).
The number of scratches per 0-30 minutes for Groups 7-9 is given below in Table 2. The numbers for Groups 7 and 8 were averaged together.

[2] = tested on: C57BL/6 mice; assay: Dose escalation of SP, mean scratch count (Example 4)
Method: The SP dose administered to male C57BL/6 mice was escalated and itching was recorded for analysis. Group 13 (N=8) received ID injection of 135 μg SP on the right side of the rostral back. Group 14 (N=8) received ID injection of 233 μg SP on the right side of the rostral back. At T0-60, immediately following dose administration, a camera began recording to monitor itching behavior. At T60, the final itching assessment was completed, camera recording ended, and the study was concluded.
The recordings were reviewed to calculate itching behavior. Two research associates reviewed the recordings and counted the number of scratches for each mouse during the 60-minute collection time. The mean of the two observations were recorded as the number of scratches per 60 minutes.
The scratching over time was observed per 10 minute time period for each animal tested. The data is set forth below in Table 6 and is shown graphically in FIG. 6.

[3] = tested on: C57BL/6 mice; assay: SP and nalmefene injection, scratches Groups 10-12, 0-60 minutes (Example 3)
Method: Fifteen male C57BL/6 mice received a single intradermal (ID) bolus injection of substance P (SP) or PBS. Group 10 (N=6) received a single 50 μL injection of PBS. Group 11 (N=4) received SP in PBS at a dose of 0.5 mM/50 μl. […] Scratching behavior was video recorded and assessed.
Groups 10 and 11: All mice were placed in a clear cylindrical enclosure 60 minutes prior to testing to acclimate. An ID bolus injection of SP in PBS was administered. Recording began immediately following injection of SP and recorded for 60 minutes.
Group 12: All mice were placed in clear cylinder enclosures for 60 minutes prior to testing to acclimate. A SC bolus injection of nalmefene was administered. 30 minutes after the nalmefene injection, an ID bolus injection of SP in PBS was administered. Recording began immediately following injection of SP and recorded for 60 minutes.
Animals in Groups 10-12 were acclimated for 1 hour prior to recording. Behavioral recording lasted for 60 minutes (T0-T60). 6 animals were dosed for Group 12 but only 5 animals were tested due to one animal being excluded as an outlier due to no response to SP injection.
The number of scratches per 10-minute time interval for Groups 10-12 is given below in Table 3. The data is also shown graphically in FIG. 4.
The number of scratches per 0-30 minute and 30-60 minute time intervals is given below in Table 4 for Group 10 (PBS), Group 11 (0.5 mM SP), and Group 12 (0.75 mg nalmefene). The data is also shown graphically in FIG. 5.

[4] = tested on: C57BL mice; assay: Intradermal injection of SP in mice, scratching behavior at the injection site (Example 1)
Source text: The method of treatment of pruritus was established using C57BL mice where substance P (SP) induced pruritus was created to induce the disease state.
Healthy male C57BL/6 mice ˜6-8 weeks of age and ranging from 21.2 to 26.8 grams in weight at study initiation were used in the Examples. The mice were acclimated for a minimum of 5 days prior to the beginning of the study. The mice were identified by tail mark and cage label. The study was not blinded. Mice were fed species-specific food, and food and water were supplied ad libitum to the animals.
Male C57BL mice were given an intradermal (ID) injection of 0.0168 μg of SP (N=4, Group 1) or PBS (N=2, Group 2) on either the right side only or on both sides. Scratching behavior at the injection site was monitored for 30 minutes from time of injection by two separate observers.
The original dose of 0.0168 μg SP (Group 1) was compared to a higher dose of 33.7 μg SP (N=4, Group 3). […] It was therefore concluded that the scratching behavior was a direct response to the presence and amount of SP.

[5] = 250 mM SP ID, Groups 7 and 8 averaged together
[6] = Group 13, 135 μg SP ID, 0-10 min
[7] = Group 13, 135 μg SP ID, 10-20 min
[8] = Group 13, 135 μg SP ID, 20-30 min
[9] = Group 13, 135 μg SP ID, 30-40 min
[10] = Group 13, 135 μg SP ID, 40-50 min
[11] = Group 13, 135 μg SP ID, 50-60 min
[12] = Group 14, 233 μg SP ID, 0-10 min
[13] = Group 14, 233 μg SP ID, 10-20 min
[14] = Group 14, 233 μg SP ID, 20-30 min
[15] = Group 14, 233 μg SP ID, 30-40 min
[16] = Group 14, 233 μg SP ID, 40-50 min
[17] = Group 14, 233 μg SP ID, 50-60 min
[18] = Group 11, SP 0.5 mM/50 μL ID, 0-10 min
[19] = Group 11, SP 0.5 mM/50 μL ID, 10-20 min
[20] = Group 11, SP 0.5 mM/50 μL ID, 20-30 min
[21] = Group 11, SP 0.5 mM/50 μL ID, 30-40 min
[22] = Group 11, SP 0.5 mM/50 μL ID, 40-50 min
[23] = Group 11, SP 0.5 mM/50 μL ID, 50-60 min

Substance: SP: neuropeptide that plays a role in the induction and maintenance of pruritus; injected intradermally to induce scratching
- Scratches, Facial, Avg. [1, 5]: 110
- Scratches, Facial, individual animals [1, 5]: 110 and 139 and 137 and 54
- Scratches, Left Side, Avg. [1, 5]: 39
- Scratches, Left Side, individual animals [1, 5]: 1 and 69 and 4 and 82
- Scratches, Other, Avg. [1, 5]: 38
- Scratches, Other, individual animals [1, 5]: 38 and 45 and 43 and 26
- Scratches, Rt. Side, Avg. [1, 5]: 12.5
- Scratches, Rt. Side, individual animals [1, 5]: 0 and 36 and 4 and 10
- Scratches, Facial, Avg. ([1]; SP 0.5 mM ID (Group 9)): 29.75
- Scratches, Facial, individual animals ([1]; SP 0.5 mM ID (Group 9)): 5 and 20 and 48 and 46
- Scratches, Left Side, Avg. ([1]; SP 0.5 mM ID (Group 9)): 12
- Scratches, Left Side, individual animals ([1]; SP 0.5 mM ID (Group 9)): 15 and 22 and 11 and 0
- Scratches, Other, Avg. ([1]; SP 0.5 mM ID (Group 9)): 21
- Scratches, Other, individual animals ([1]; SP 0.5 mM ID (Group 9)): 7 and 27 and 35 and 15
- Scratches, Rt. Side, Avg. ([1]; SP 0.5 mM ID (Group 9)): 16.75
- Scratches, Rt. Side, individual animals ([1]; SP 0.5 mM ID (Group 9)): 28 and 7 and 13 and 19
- Mean Scratch Count, Avg. [2, 6]: 56.75
- Mean Scratch Count, individual animals [2, 6]: 127 and 58 and 5.5 and 22 and 57 and 21.5 and 91 and 72
- Mean Scratch Count, Avg. [2, 7]: 26.44
- Mean Scratch Count, individual animals [2, 7]: 53.5 and 41.5 and 0 and 7 and 36 and 23 and 41 and 9.5
- Mean Scratch Count, Avg. [2, 8]: 8.88
- Mean Scratch Count, individual animals [2, 8]: 0 (2×) and 4 and 7 and 2 and 12.5 and 22.5 and 23
- Mean Scratch Count, Avg. [2, 9]: 3.69
- Mean Scratch Count, individual animals [2, 9]: 0 (4×) and 15 and 0.5 and 12 and 2
- Mean Scratch Count, Avg. [2, 10]: 1.06
- Mean Scratch Count, individual animals [2, 10]: 0 (6×) and 5 and 3.5
- Mean Scratch Count, Avg. [2, 11]: 0.31
- Mean Scratch Count, individual animals [2, 11]: 0 (6×) and 2 and 0.5
- Mean Scratch Count, Avg. [2, 12]: 89.88
- Mean Scratch Count, individual animals [2, 12]: 123 and 131.5 and 108 and 85.5 and 8 and 33 and 145 and 85
- Mean Scratch Count, Avg. [2, 13]: 30.06
- Mean Scratch Count, individual animals [2, 13]: 56.5 and 32 and 42 and 33 and 6 and 9 and 35 and 27
- Mean Scratch Count, Avg. [2, 14]: 13.94
- Mean Scratch Count, individual animals [2, 14]: 7 and 6 and 27 and 21.5 and 5 and 10.5 and 16 and 18.5
- Mean Scratch Count, Avg. [2, 15]: 5.19
- Mean Scratch Count, individual animals [2, 15]: 0 (2×) and 3 and 5 (2×) and 16.5 and 8 and 4
- Mean Scratch Count, Avg. [2, 16]: 3.56
- Mean Scratch Count, individual animals [2, 16]: 3 and 0 (3×) and 4 and 7.5 and 1 and 13
- Mean Scratch Count, Avg. [2, 17]: 6.31
- Mean Scratch Count, individual animals [2, 17]: 8 and 0 (2×) and 2 and 33 and 1 (2×) and 5.5
- Scratches, Avg. ([3]; Group 11, SP 0.5 mM, 0-30 min): 87.5
- Scratches, individual animals ([3]; Group 11, SP 0.5 mM, 0-30 min): 119 and 67 and 94.5 and 69.5
- Scratches, Avg. ([3]; Group 11, SP 0.5 mM, 30-60 min): 8.38
- Scratches, individual animals ([3]; Group 11, SP 0.5 mM, 30-60 min): 19.5 and 5.5 and 2.5 and 6
- Scratches, Avg. [3, 18]: 53.75
- Scratches, individual animals [3, 18]: 57.5 and 66 and 49 and 42.5
- Scratches, Avg. [3, 19]: 28
- Scratches, individual animals [3, 19]: 41.5 and 1 and 45 and 24.5
- Scratches, Avg. [3, 20]: 5.75
- Scratches, individual animals [3, 20]: 20 and 0 and 0.5 and 2.5
- Scratches, Avg. [3, 21]: 6
- Scratches, individual animals [3, 21]: 15.5 and 0 and 2.5 and 6
- Scratches, Avg. [3, 22]: 0
- Scratches, individual animals [3, 22]: 0
- Scratches, Avg. [3, 23]: 2.38
- Scratches, individual animals [3, 23]: 4 and 5.5 and 0 (2×)
- local site scratching behavior ([4]; 0.0168 μg SP ID vs PBS-injected mice, 30 minutes from injection, FIG. 2a): more frequent
- scratching in mice, higher vs lower SP dose ([4]; 33.7 μg SP vs 0.0168 μg SP, FIG. 2b): increased scratching
